In patent US4820834A, “Benzodiazepine analogs” (priority 1987, dated 1989):
Read-outs that look alike come from different tables or passages of the source.

Columns and labels:
CCK receptor (pancreas) = target: T1, CCK receptor (pancreas) (Rattus norvegicus, UniProt P30551); experiment: CCK Receptor Binding (Pancreas): inhibition of ^125 I-CCK-33 binding; design: species or system Male Sprague-Dawley rats; conditions: rat pancreas membranes, ^125 I-CCK-33, 37° C., 30 minutes
T1 construct: The whole pancreas was dissected free of fat tissue and was homogenized; from tissue; host or cells: rat pancreas membranes (Sprague-Dawley)
T1 sequence (P30551 1-444): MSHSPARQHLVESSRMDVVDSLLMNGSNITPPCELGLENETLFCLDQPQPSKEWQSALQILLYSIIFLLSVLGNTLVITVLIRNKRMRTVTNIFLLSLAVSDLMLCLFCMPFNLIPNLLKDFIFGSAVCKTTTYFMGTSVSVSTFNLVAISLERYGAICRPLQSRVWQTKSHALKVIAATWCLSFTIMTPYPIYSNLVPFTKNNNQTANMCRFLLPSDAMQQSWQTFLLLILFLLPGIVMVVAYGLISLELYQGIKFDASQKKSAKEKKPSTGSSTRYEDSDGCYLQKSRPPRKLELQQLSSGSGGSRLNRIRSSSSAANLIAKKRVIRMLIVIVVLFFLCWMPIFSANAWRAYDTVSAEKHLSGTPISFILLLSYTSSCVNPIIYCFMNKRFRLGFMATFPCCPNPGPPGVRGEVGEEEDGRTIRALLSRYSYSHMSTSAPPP
Procedure, shortened: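 Rat (male Sprague-Dawley) pancreatic membranes in 50 mM Tris HCl pH 7.7 with DTT, bacitracin, PMSF and o-phenanthroline; ^125I-Bolton Hunter-labelled CCK-33 as radioligand. Incubation 30 min at 37° C, separation by centrifugation, pellet gamma-counted; Scatchard analysis by diluting ^125I-CCK-33 with increasing CCK-33.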

[1] = target: T2, CCK receptor (brain, cerebral cortex) (Cavia porcellus, UniProt H0VZC5); experiment: biochemical; format: binding, Male Hartley guinea pigs; conditions: guinea pig cerebral cortex, ^125 I-CCK-33, 25° C., 2 hours
T2 construct: Cerebral cortex was dissected and used as a receptor source; from tissue; host or cells: guinea pig cerebral cortex membranes (male Hartley)
T2 sequence (H0VZC5 1-426): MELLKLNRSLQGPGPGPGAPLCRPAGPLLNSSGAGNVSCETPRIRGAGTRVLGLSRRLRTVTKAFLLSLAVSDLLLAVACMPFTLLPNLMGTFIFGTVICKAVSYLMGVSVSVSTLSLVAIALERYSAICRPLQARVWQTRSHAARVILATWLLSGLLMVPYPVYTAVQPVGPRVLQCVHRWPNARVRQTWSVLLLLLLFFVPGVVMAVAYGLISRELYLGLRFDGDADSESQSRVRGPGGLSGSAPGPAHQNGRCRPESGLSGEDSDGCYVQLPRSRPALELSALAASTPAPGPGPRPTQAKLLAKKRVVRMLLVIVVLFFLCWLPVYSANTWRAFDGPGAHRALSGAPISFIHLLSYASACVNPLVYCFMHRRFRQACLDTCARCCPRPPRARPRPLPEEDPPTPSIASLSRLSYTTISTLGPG
Procedure, shortened: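 Guinea pig cerebral cortex homogenate as receptor source, with radiolabeled CCK-33 in HEPES buffer containing MgCl2, bacitracin, EGTA and 0.4% BSA. Incubation 2 h at 25°C; bound ligand pelleted by centrifugation and gamma-counted.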

[2] = target: T3, Gastrin receptor (gastric glands) (Cavia porcellus, UniProt H0VZC5); experiment: Gastrin Receptor Binding in Guinea Pig Gastric Glands; design: species or system guinea pig (male Hartley); conditions: 25° C., 30 minutes
T3 construct: The washed guinea pig gastric glands prepared as above were resuspended; from tissue; host or cells: guinea pig gastric mucosal glands (male Hartley)
T3 sequence (H0VZC5 1-426): T2 sequence (H0VZC5 1-426)

[3] = read-out: IC50 ^125 I-CCK Brain
[4] = ^125 I-gastrin, read-out: IC50 ^125 I-Gastrin Gastric Glands
[5] = read-out: IC50 ^125 I-CCK Pancreas
[6] = IC50 ^125 I-Gastrin Gastric Glands

With `CN1C(=O)C(NC(=O)[C@@H](Cc2ccccc2)NC(=O)OC(C)(C)C)N=C(c2ccccc2F)c2ccccc21` (stereo partly drawn) [Example 231, (2-((5-(2-Fluorophenyl)-2,3-dihydro-1-methyl-2-oxo-1H-1,4-benzodiazepin-3-yl)amino)-2-oxo-1-(phenylmethyl)ethyl)-carbamic acid 1,1-dimethylethyl ester] the IC50 (CCK receptor (pancreas); IC50 ^125 I-CCK Pancreas) was 0.58 µM, the IC50 [1, 3] was 2.7 µM and the IC50 [2, 4] was 2.9 µM.
`CC(C(=O)O)N1C(=O)C(NC(=O)OCc2ccccc2)N=C(c2ccccc2)c2ccccc21` (stereo not drawn) [Example 243, 2,3-Dihydro-alpha-methyl-2-oxo-5-phenyl-3-((phenylmethoxy)carbonyl)amino-1H-1,4-benzodiazepine-1-acetic acid] showed an IC50 (CCK receptor (pancreas); IC50 ^125 I-CCK Pancreas) of 0.68 µM, an IC50 [1, 3] of 2.8 µM and an IC50 [2, 4] of 3.6 µM.
With `CCOC(=O)CCN1C(=O)C(NC(=O)OCc2ccccc2)N=C(c2ccccc2)c2ccccc21` (stereo not drawn) [Example 229, 2,3-Dihydro-2-oxo-5-phenyl-3-(((phenylmethoxy)carbonyl)amino)-1H-1,4-benzodiazepine-1-propanoic acid ethyl ester] the IC50 (CCK receptor (pancreas); IC50 ^125 I-CCK Pancreas) was 1.2 µM, the IC50 [1, 3] was 0.44 µM and the IC50 [2, 4] was 0.26 µM.
In the case of `CN1C(=O)[C@H](NC(=O)c2ccccc2I)N=C(c2ccccc2F)c2ccccc21` [Example 169, 3(R)-(+)-1,3-Dihydro-5-(2-fluorophenyl)-3-(2-iodobenzoylamino)-1-methyl-2H-1,4-benzodiazepin-2-one], the IC50 (CCK receptor (pancreas); [5]) is reported as 58 µM, the IC50 ([1]; IC50 ^125 I-CCK Brain) is reported as 3.8 µM and the IC50 [2, 4] is reported as 4.4 µM.
Work on `CCN(CC)C(=O)C(C)N1C(=O)C(NC(=O)OCc2ccccc2)N=C(c2ccccc2)c2ccccc21` (stereo not drawn) [Example 244, (1-(2-(Diethylamino)-1-methyl-2-oxoethyl)-2,3-dihydro-2-oxo-5-phenyl-1H-1,4-benzodiazepin-3-yl)-carbamic acid phenylmethyl ester] yielded an IC50 (CCK receptor (pancreas); IC50 ^125 I-CCK Pancreas) of 0.95 µM, an IC50 [1, 3] of 0.74 µM and an IC50 [2, 4] of 0.5 µM.
For `O=C1Nc2ccccc2C(c2ccccc2F)=NC1CNc1cncc(Cl)n1` (racemic) [Example 70, 1,3-Dihydro-5-(2'-fluorophenyl)-3-(RS)-(6'-chloropyrazin-2yl)aminomethyl-2H-4-benzodiazepin-2-one], the IC50 (CCK receptor (pancreas); IC50 ^125 I-CCK Pancreas) was 15 µM, the IC50 [1, 3] was 100 µM and the IC50 [2, 4] was 200 µM.
With `CCN(CC)C(=O)CN1C(=O)C(NC(=O)Nc2ccc(Cl)cc2)N=C(c2ccccc2)c2ccccc21` (stereo not drawn) [Example 221, 3-((((4-Chlorophenyl)amino)carbonyl)amino)-N,N-diethyl-2,3-dihydro-2-oxo-5-phenyl-1H-1,4-benzodiazepine-1-acetamide] the IC50 (CCK receptor (pancreas); [5]) was 0.4 µM, the IC50 [1, 3] was 0.0006 µM and the IC50 [2, 4] was 0.002 µM.
Compound `CN1C(=O)C(NC(=O)c2ccc(Br)cc2)N=C(c2ccccc2)c2ccccc21` (stereo not drawn) [Example 216, 4-Bromo-N-(2,3-dihydro-1-methyl-2-oxo-5-phenyl-1H-1,4-benzodiazepin-3-yl)-benzamide] has an IC50 (CCK receptor (pancreas); [5]) of 0.001 µM, an IC50 ([1]; IC50 ^125 I-CCK Brain) of 2.4 µM and an IC50 [2, 4] of 1.7 µM.
`COc1cc(NC(=O)NC2N=C(c3ccccc3)c3ccccc3N(C)C2=O)cc(OC)c1` (stereo not drawn) [Example 274] gave an IC50 (CCK receptor (pancreas); [5]) of 0.31 µM, an IC50 [1, 3] of 2.3 µM and an IC50 [2, 4] of 1.6 µM.
Compound `NCC1N=C(c2ccccc2F)c2ccccc2NC1=O` (racemic) [Example 63, 1,3-Dihydro-5-(2'-fluorophenyl)-3(RS)-aminomethyl-2H-1,4-benzodiazepin-2-on] has an IC50 (CCK receptor (pancreas); IC50 ^125 I-CCK Pancreas) of over 100 µM, an IC50 ([1]; IC50 ^125 I-CCK Brain) of over 100 µM and an IC50 [2, 6] of over 1000 µM.
For `CN1C(=O)[C@H](NC(=O)c2cccc(I)c2)N=C(c2ccccc2F)c2ccccc21` [Example 168, 3(R)-(-)-1,3-Dihydro-5-(2-fluorophenyl)-3-(3-iodobenzoylamino)-1-methyl-2H-1,4-benzodiazepin-2-one], the IC50 (CCK receptor (pancreas); [5]) was 0.015 µM, the IC50 [1, 3] was 2.4 µM and the IC50 [2, 4] was 2 µM.
`CN1C(=O)C(NC(=O)Nc2ccccc2Cl)N=C(c2ccccc2)c2ccccc21` (stereo not drawn) [Example 254, N-(2-Chlorophenyl)-N'-(2,3-dihydro-1-methyl-2-oxo-5-phenyl-1H-1,4-benzodiazepin-3-yl)-urea] was tested, and the IC50 (CCK receptor (pancreas); IC50 ^125 I-CCK Pancreas) was 0.0009 µM, the IC50 [1, 3] was 0.32 µM and the IC50 [2, 4] was 0.11 µM.
`O=C(NC1N=C(c2ccccc2F)c2ccccc2NC1=O)c1ccc2ccccc2n1` (racemic) [Example 116] showed an IC50 (CCK receptor (pancreas); IC50 ^125 I-CCK Pancreas) of 0.3 µM, an IC50 [1, 3] of 80 µM and an IC50 [2, 4] of over 10 µM.
Compound `CCN(CC)C(=O)CN1C(=O)C(NC(=O)Nc2ccccc2Cl)N=C(c2ccccc2)c2ccccc21` (stereo not drawn) [Example 286, 3-{[((2-Chlorophenyl)amino)carbonyl]amino}-N,N-diethyl-2,3-dihydro-2-oxo-5-phenyl-1H-1,4-benzodiazepine-1-acetamide] has an IC50 (CCK receptor (pancreas); IC50 ^125 I-CCK Pancreas) of over 0.1 µM, an IC50 [1, 3] of 0.0038 µM and an IC50 [2, 4] of 0.0015 µM.
`CN1C(=O)C(O)(C(=O)c2ccsc2)N=C(c2ccccc2)c2ccccc21` (racemic) [Example 53a, 1,3-Dihydro-3-(RS)-hydroxy-1-methyl-5-phenyl-3-(3'-thienoyl)-2H-1,4-benzodiazepin-2-one] showed an IC50 (CCK receptor (pancreas); IC50 ^125 I-CCK Pancreas) of 100 µM, an IC50 [1, 3] of 4.2 µM and an IC50 [2, 4] of 0.85 µM.
`CC(C)(C)OC(=O)N[C@H](Cc1c[nH]c2ccccc12)C(=O)NC1N=C(c2ccccc2)c2ccccc2NC1=O` (mixture of isomers) [Example 96, 3(RS)-(BOC-D-tryptophanyl)amino-1,3-dihydro-5-phenyl-2H-1,4-benzodiazepin-2-one] showed an IC50 (CCK receptor (pancreas); IC50 ^125 I-CCK Pancreas) of 17 µM, an IC50 ([1]; IC50 ^125 I-CCK Brain) of over 100 µM and an IC50 [2, 6] of 500 µM.
Compound `O=C(Cc1ccc(Cl)cc1)NC1N=C(c2ccccc2)c2ccccc2NC1=O` (stereo not drawn) [Example 240, 4-Chloro-N-(2,3-dihydro-2-oxo-5-phenyl-1,4-benzodiazepin-3-yl)-benzeneacetamide] has an IC50 (CCK receptor (pancreas); IC50 ^125 I-CCK Pancreas) of 1.3 µM, an IC50 [1, 3] of 2.9 µM and an IC50 [2, 4] of 7 µM.
With `O=C1Nc2ccccc2C(c2ccccc2F)=N[C@@H]1CC1CNc2ccccc21` (stereo partly drawn) [Example 9] the IC50 (CCK receptor (pancreas); IC50 ^125 I-CCK Pancreas) was 10.7 µM, the IC50 ([1]; IC50 ^125 I-CCK Brain) was 48 µM and the IC50 [2, 4] was 78 µM.
For `CN1C(=O)[C@H](NC(=O)c2ccc(Br)cc2)N=C(c2ccccc2)c2ccccc21` [Example 93, 3(R)-(+)-1,3-Dihydro-3-(4-bromobenzoylamino)-1-methyl-5-phenyl-2H-1,4-benzodiazepin-2-one], the IC50 (CCK receptor (pancreas); [5]) was 0.7 µM, the IC50 ([1]; IC50 ^125 I-CCK Brain) was 2.9 µM and the IC50 [2, 4] was 2 µM.
`COc1cccc(NC(=O)NC2N=C(c3ccccc3)c3cccc(C)c3N(C)C2=O)c1` (stereo not drawn) [Example 290, N-(3-Methoxyphenyl)-N'-(2,3-dihydro-1,9-dimethyl-2-oxo-5-phenyl-1H-1,4-benzodiazepin-3-yl)-urea] showed an IC50 (CCK receptor (pancreas); IC50 ^125 I-CCK Pancreas) of 0.002 µM, an IC50 [1, 3] of 0.015 µM and an IC50 [2, 4] of 0.0087 µM.
In the case of `Cc1ccc(NC(=O)N[C@@H]2N=C(c3ccccc3)c3ccccc3N(C)C2=O)cc1` [Example 293, (R)-N-(2,3-Dihydro-1-methyl-2-oxo-5-phenyl-1H-1,4-benzodiazepin-3-yl)-N'-(4-methylphenyl)-urea], the IC50 (CCK receptor (pancreas); [5]) is reported as 3.1 µM, the IC50 ([1]; IC50 ^125 I-CCK Brain) is reported as 0.0065 µM and the IC50 [2, 6] is reported as 0.0025 µM.
`CN1C(=O)C(NC(=O)Nc2ccccc2)N=C(c2ccccc2)c2ccccc21` (stereo not drawn) [Example 250, N-(2,3-Dihydro-1-methyl-2-oxo-5-phenyl-1H-1,4-benzodiazepin-3-yl)-N'-phenylurea] gave an IC50 (CCK receptor (pancreas); [5]) of 0.0083 µM, an IC50 [1, 3] of 0.032 µM and an IC50 [2, 4] of 0.009 µM.
For `CCOC(=O)CN1C(=O)C(NC(=O)OCc2ccccc2)N=C(c2ccccc2)c2ccccc21` (stereo not drawn) [Example 209, 2,3-Dihydro-2-oxo-5-phenyl-3-(((phenylmethoxy)carbonyl)amino)-1H-1,4-benzodiazepine-1-acetic acid ethyl ester], the IC50 (CCK receptor (pancreas); IC50 ^125 I-CCK Pancreas) was 2.2 µM, the IC50 [1, 3] was 0.3 µM and the IC50 [2, 4] was 0.3 µM.
`CN1C(=O)C(C(O)c2cn(C)c3ccccc23)N=C(c2ccccc2)c2ccccc21` (racemic) [Example 50a, 1,3-Dihydro-3(RS)-[1-hydroxy-1-[3-(1-methylindolyl)]]-methyl-1-methyl-5-phenyl-2H-1,4-benzodiazepin-2-one] showed an IC50 (CCK receptor (pancreas); IC50 ^125 I-CCK Pancreas) of 15 µM, an IC50 [1, 3] of 2.6 µM and an IC50 [2, 4] of 1.2 µM.
